Measurements published in US20240350512A1, “CYTOSKELETAL TENSION REGULATORS AND FAS LIGAND-COMBINATION COMPOSITIONS AND METHODS OF TREATMENT USING THE SAME” (Yale University, priority 2021, published 2024).

What was measured:
Fas receptors on HUVECs = assay: Immunostaining of surface Fas receptors on HUVECs; format: cell-based; conditions: 2 hours; regardless of the treatment
Protocol: (§1) FIGS. 2A-2E: Fas receptor expression on the cancer cell surface. FIG. 2A: Addition of either Fasudil, Blebbistatin, or GW5074 to the cell culture medium for 2 hours increased the Fas receptor staining on the cancer cells, but not on HUVECs. […] Fold increase of Fas staining density as response to treatment with FIG. 2C: Fasudil, FIG. 2D: Blebbisatin, and FIG. 2E: GW5074.
(§2) It was speculated that the active Raf-1, due to increased intracellular tension in cancer cell, can cause lack of Fas receptors on the cell surface and that either inhibition of Raf-1 or reduction of mechanical tension in the cytoskeleton can restore the Fas receptors on cell surface. To test this theory, U87 (glioblastoma), A549 (non-small cell lung cancer, resistant to apoptosis, FAS ligand alone increases proliferation), HepG2 (liver cancer), PC3 (prostate cancer), and SUM159 (triple negative breast cancer) cells were treated either with 20 μM Raf-1 inhibitor GW5074, 40 μM ROCK inhibitor Fasudil, or 10 μM myosin inhibitor Blebbistatin for 2 hours.

[1] = test system: surface Fas receptors of cancer cells (U87, A549, HepG2, PC3, and SUM159 cells); assay: Immunostaining of surface Fas receptors on cancer cells; format: cell-based; conditions: 2 hours; 40 μM Fasudil, 10 μM Blebbistatin or 20 μM GW5074; range over U87, A549, HepG2, PC3, SUM159
Protocol: as §1
In the present study, the effect of the ROCK inhibitor Fasudil, Myosin-II inhibitor Blebbistatin, or the Raf-1 inhibitor GW5074 on Fas receptor translocation on surface of U87, A549, HepG2, PC3, and SUM159 cells was evaluated. The effect of these drugs on cell viability when used alone or in combination with exogenous, recombinant Fas ligand was analyzed. Next, the effects of Fasudil and Fas ligand combination on glioblastoma growth and on viability of non-cancerous cells in engineered brain organoids was investigated. Finally, the in vivo efficacy of the Fasudil-Fas ligand combination on preventing tumor growth in a xenograft U87 tumor model in nude mice was tested.
as §2

U87 cells = format: cell-based; conditions: for cell viability in U87 cells, drug combined with Fas ligand: Fas ligand 400 ng/mL with 40 μM Fasudil, 10 μM Blebbistatin or 20 μM GW5074
Description: FIGS. 3A-3E: Fortified Fas-mediated apoptosis in cancer cells. […] FIG. 3B: representative light microscopy images of U87 cells showing the effect of Fasudil-Fas ligand combination. For the other cancer cell types see FIG. 7. Fasudil-Fas ligand combination decreased the viability of A549, HepG2, SUM159, PC3, and BT549 cells synergistically (FIGS. 3C-3D).
(§3) After showing that Fas receptor expression on the cell surface can be increased with different ques targeting cytoskeletal tension, the Fas-mediated apoptosis triggered by the exogenous Fas ligand when combined with Fasudil, Blebbistain, or GW5074 was studied. The cell viability by quantifying the ATP level present in the cell culture medium after 48 hours of treatment was assessed.

U87 xenograft tumor = U87 xenograft tumor model in nude mice; format: in vivo; conditions: for average tumor size: one month after tumor initiation, intraperitoneal injection twice a week for four weeks; for median survival probability: terminal point 1000 mm^3
Protocol: Further, the anti-tumor efficacies of Fas ligand and Fasudil combination using a U87 xenograft tumor model in nude mice were evaluated. Fas ligand and Fasudil were administrated by intraperitoneal injection when the subcutaneous tumor grew to palpable size >50 mm^3 twice a week for four weeks. The mice were primed with either Fasudil or saline 24 hours before the injection of Fasudil and Fas ligand together. Only Fasudil, only Fas ligand, and only saline injections were made in the control groups. 7-10 mice with tumor volumes ranging from 50-200 mm^3 were randomly assigned to each treatment arm. Terminal point for the tumor growth was determined as 1000 mm^3.

PC3 cells = format: cell-based
Protocol: as §3

HepG2 cells = format: cell-based
Protocol: as §3

A549 cells = format: cell-based
Protocol: as §3

BT549 cells = format: cell-based
Protocol: as §3

SUM159 cells = format: cell-based
Protocol: as §3

Cc1ccc2c(c1)C(=O)C1(O)CCN(c3ccccc3)C1=N2 (stereo not shown) [Blebbistatin, blebbistatin]
Fas staining of HUVECs (Fas receptors on HUVECs): negligible | increase of immunostaining of surface Fas receptors of cancer cells [1]: 1.76-2.15 folds | cell viability in U87 cells, drug combined with Fas ligand (U87 cells): decreased cell viability significantly

O=S(=O)(c1cccc2cnccc12)N1CCCNCC1 [Fasudil, fasudil]
Fas staining of HUVECs (Fas receptors on HUVECs): negligible | average tumor size (U87 xenograft tumor): 584.4±113.8 mm3 | median survival probability (U87 xenograft tumor): 28% | increase of immunostaining of surface Fas receptors of cancer cells [1]: 2.12-3.28 folds | cell viability in U87 cells, drug combined with Fas ligand (U87 cells): decreased cell viability significantly

O=C1Nc2ccc(I)cc2/C1=C/c1cc(Br)c(O)c(Br)c1 [GW5074]
Fas staining of HUVECs (Fas receptors on HUVECs): negligible | increase of immunostaining of surface Fas receptors of cancer cells [1]: 1.62-2.30 folds | cell viability in U87 cells, drug combined with Fas ligand (U87 cells): decreased cell viability significantly

B1: Fas ligand: human recombinant Fas ligand, protein having the amino acid sequence SEQ ID NO: 1 (protein, listed as Homo sapiens)
chain: MQQPFNYPYPQIYWVDSSASSPWAPPGTVLPCPTSVPRRPGQRRPPPPPPPPPLPPPPPPPPLPPLPLPPLKKRGNHSTGLCLLVMFFMVLVALVGLGLGMFQLFHLQKELAELRESTSQMHTASSLEKQIGHPSPPPEKKELRKVAHLTGKSNSRSMPLEWEDTYGIVLLSGVKYKKGGLVINETGLYFVYSKVYFRGQSCNNLPLSHKVYMRNSKYPQDLVMMEGKMMSYCTTGQMWARSSYLGAVFNLTSADHLYVNVSELSLVNFEESQTFFGLYK
average tumor size (U87 xenograft tumor): 602.2±195.7 mm3 | median survival probability (U87 xenograft tumor): 27% | cell viability (PC3 cells): 80.2 % of the control | cell viability (HepG2 cells): 44.6 % of the control | cell viability (A549 cells): 67.8 % of the control | cell viability (BT549 cells): 58.0 % of the control | cell viability (SUM159 cells): 59.9 % of the control | cell viability (U87 cells): 55.6 % of the control
